{"source": "patent US20040057961A1", "about": "“Human t cell response to mhc-binding motif clusters” (priority 2000, published 2004)", "key": {"[1]": {"test_system": "peripheral blood mononuclear cells from Mtb-immune (PPD skin-test positive) subjects", "assay": "Lymphoproliferation assay ([3H]thymidine, stimulation index) with PBMC of Mtb-immune subjects", "format": "cell-based, human", "conditions": "for number of Mtb-immune responders (proliferative response SI≧2.0): all Mtb-immune subjects; for Phil % responders (n = 38) / Phil # responders (n = 38): Philippines cohort; for Phil % responders (n = 38) / Phil # responders (n = 38) / Prov % responders (n = 22) / Prov # responders (n = 22): response positive if SI≧2.0; for Phil # responders (n = 38) / Prov # responders (n = 22): peptide 1 and 10 μg/ml; for Prov % responders (n = 22) / Prov # responders (n = 22): Providence cohort"}, "[2]": {"test_system": "peripheral blood mononuclear cells from Mtb-naive (PPD skin-test negative) subjects", "assay": "Lymphoproliferation assay ([3H]thymidine, stimulation index) with PBMC of Mtb-naive subjects", "format": "cell-based, human", "conditions": "n=19"}}}
{"substance": "AELPGVDPDKDVD (listed as Mycobacterium tuberculosis) [16-3, 16 kDa Mtb protein, amino acids 54-66]", "values": [{"measurement": "number of Mtb-immune responders (proliferative response SI≧2.0)", "setting": "[1]; n=40", "value": "one"}]}
{"substance": "CEVWSNVSETISGPRLYGEM (listed as Mycobacterium tuberculosis) [14-5, 14 kDa Mtb protein, amino acids 74-93]", "values": [{"measurement": "Phil % responders (n = 38)", "setting": "[1]", "value": 5, "unit": "%"}, {"measurement": "Phil # responders (n = 38)", "setting": "[1]", "value": 2}, {"measurement": "Prov % responders (n = 22)", "setting": "[1]", "value": 5, "unit": "%"}, {"measurement": "Prov # responders (n = 22)", "setting": "[1]", "value": 2}]}
{"substance": "FAYGSFVRTVSLPVGA (listed as Mycobacterium tuberculosis) [16-5, 16 kDa Mtb protein, amino acids 92-107]", "values": [{"measurement": "Mtb-naive controls that responded", "setting": "[2]", "value": "none"}, {"measurement": "% responders among Mtb-immune subjects", "setting": "[1]; n=40", "value": 28, "unit": "%"}, {"measurement": "number of Mtb-immune responders (proliferative response SI≧2.0)", "setting": "[1]; n=40", "value": "six"}]}
{"substance": "FSELFAAFPSFAGLRPTFDT [16-2, 16 kDa Mtb protein, amino acids 17-36]", "values": [{"measurement": "Phil % responders (n = 38)", "setting": "[1]", "value": 10, "unit": "%"}, {"measurement": "Phil # responders (n = 38)", "setting": "[1]", "value": 4}, {"measurement": "Prov % responders (n = 22)", "setting": "[1]", "value": 3, "unit": "%"}, {"measurement": "Prov # responders (n = 22)", "setting": "[1]", "value": 1}]}
{"substance": "GSFGSAPSNGWLKLGLVEFG (listed as Mycobacterium tuberculosis) [14-2, 14 kDa Mtb protein, amino acids 19-38]", "values": [{"measurement": "Phil % responders (n = 38)", "setting": "[1]", "value": 15, "unit": "%"}, {"measurement": "Phil # responders (n = 38)", "setting": "[1]", "value": 6}, {"measurement": "Prov % responders (n = 22)", "setting": "[1]", "value": 8, "unit": "%"}, {"measurement": "Prov # responders (n = 22)", "setting": "[1]", "value": 3}, {"measurement": "number of Mtb-immune responders (proliferative response SI≧2.0)", "setting": "[1]; n=40", "value": "six"}]}
{"substance": "KFLEGFVRTSNIKFQD (listed as Mycobacterium tuberculosis) [32-9, 32 kDa Mtb protein, amino acids 227-242]", "values": [{"measurement": "number of Mtb-immune responders (proliferative response SI≧2.0)", "setting": "[1]; n=40", "value": "six"}]}
{"substance": "LAIGGAATGIAAVLTDGNPP [19-3]", "values": [{"measurement": "number of Mtb-immune responders (proliferative response SI≧2.0)", "setting": "[1]; n=40", "value": "six"}]}
{"substance": "LAIYHPQQFVYAGAMSGLLD (listed as Mycobacterium tuberculosis) [32-7, 32 kDa Mtb protein, amino acids 135-154]", "values": [{"measurement": "number of Mtb-immune responders (proliferative response SI≧2.0)", "setting": "[1]; n=40", "value": "six"}]}
{"substance": "LKLGLVEFGGVAKLNAEVMS (listed as Mycobacterium tuberculosis) [14-3, 14 kDa Mtb protein, amino acids 30-49]", "values": [{"measurement": "Phil % responders (n = 38)", "setting": "[1]", "value": 8, "unit": "%"}, {"measurement": "Phil # responders (n = 38)", "setting": "[1]", "value": 3}, {"measurement": "Prov % responders (n = 22)", "setting": "[1]", "value": 10, "unit": "%"}, {"measurement": "Prov # responders (n = 22)", "setting": "[1]", "value": 4}, {"measurement": "number of Mtb-immune responders (proliferative response SI≧2.0)", "setting": "[1]; n=40", "value": "six"}]}
{"substance": "MLGNAPSVVPNTTLGMHC (listed as Mycobacterium tuberculosis) [14-1, 14 kDa Mtb protein, amino acids 1-18]", "values": [{"measurement": "Phil % responders (n = 38)", "setting": "[1]", "value": 5, "unit": "%"}, {"measurement": "Phil # responders (n = 38)", "setting": "[1]", "value": 2}, {"measurement": "Prov % responders (n = 22)", "setting": "[1]", "value": 5, "unit": "%"}, {"measurement": "Prov # responders (n = 22)", "setting": "[1]", "value": 2}]}
{"substance": "PLLNVGKLIANNTRVWVY (listed as Mycobacterium tuberculosis) [32-8, 32 kDa Mtb protein, amino acids 193-210]", "values": [{"measurement": "Mtb-naive controls that responded", "setting": "[2]", "value": "none"}, {"measurement": "% responders among Mtb-immune subjects", "setting": "[1]; n=40", "value": 25, "unit": "%"}]}
{"substance": "QAVMLGTGTPNRA (listed as Mycobacterium tuberculosis) [14-4, 14 kDa Mtb protein, amino acids 56-68]", "values": [{"measurement": "Phil % responders (n = 38)", "setting": "[1]", "value": 8, "unit": "%"}, {"measurement": "Phil # responders (n = 38)", "setting": "[1]", "value": 3}, {"measurement": "Prov % responders (n = 22)", "setting": "[1]", "value": 3, "unit": "%"}, {"measurement": "Prov # responders (n = 22)", "setting": "[1]", "value": 1}]}
{"substance": "QNVTGSVVCTTAAGNVN [19-2]", "values": [{"measurement": "number of Mtb-immune responders (proliferative response SI≧2.0)", "setting": "[1]; n=40", "value": "six"}]}
{"substance": "RHVKPTGSAVVGLSMAASSA [32-5, 32 kDa Mtb protein, amino acids 113-132]", "values": [{"measurement": "number of Mtb-immune responders (proliferative response SI≧2.0)", "setting": "[1]; n=40", "value": "six"}]}
{"substance": "RSLFPEFSELFAAFPSFAGL (listed as Mycobacterium tuberculosis) [16-1, 16 kDa Mtb protein, amino acids 11-30]", "values": [{"measurement": "Phil % responders (n = 38)", "setting": "[1]", "value": 10, "unit": "%"}, {"measurement": "Phil # responders (n = 38)", "setting": "[1]", "value": 4}, {"measurement": "Prov % responders (n = 22)", "setting": "[1]", "value": 5, "unit": "%"}, {"measurement": "Prov # responders (n = 22)", "setting": "[1]", "value": 2}, {"measurement": "number of Mtb-immune responders (proliferative response SI≧2.0)", "setting": "[1]; n=40", "value": "six"}]}
{"substance": "SVVMPVGGQSSFYSDW (listed as Mycobacterium tuberculosis) [32-3, 32 kDa Mtb protein, amino acids 67-82]", "values": [{"measurement": "number of Mtb-immune responders (proliferative response SI≧2.0)", "setting": "[1]; n=40", "value": "only a few"}]}
{"substance": "TT: tetanus toxoid, control antigen (Connaught) [reference compound]", "values": [{"measurement": "Mtb-naive controls not showing a proliferative response", "setting": "[2]; control antigen 5 μg/ml", "value": "one"}, {"measurement": "Mtb-immune subjects showing a proliferative response in vitro", "setting": "[1]; control antigen 5 μg/ml, n=40", "value": "All but six"}, {"measurement": "stimulation index (SI) range", "setting": "[1]; control antigen 5 μg/ml, range over responding subjects", "value": "2-182"}]}
{"substance": "VGLSMAASSALTLAIYHPQQ (listed as Mycobacterium tuberculosis) [32-6, 32 kDa Mtb protein, stop at amino acid 142]", "values": [{"measurement": "number of Mtb-immune responders (proliferative response SI≧2.0)", "setting": "[1]; n=40", "value": "six"}]}
{"substance": "VSETISGPRLYGEMTMQGTR (listed as Mycobacterium tuberculosis) [14-6, 14 kDa Mtb protein, amino acids 80-99]", "values": [{"measurement": "Phil % responders (n = 38)", "setting": "[1]", "value": 3, "unit": "%"}, {"measurement": "Phil # responders (n = 38)", "setting": "[1]", "value": 1}, {"measurement": "Prov % responders (n = 22)", "setting": "[1]", "value": 3, "unit": "%"}, {"measurement": "Prov # responders (n = 22)", "setting": "[1]", "value": 1}]}
{"substance": "phytohemagglutinin [reference compound]", "values": [{"measurement": "response to mitogen in words", "setting": "[1]; 1 μg/ml, the 41 subjects who were tested (both groups)", "value": "robust response"}]}
